The text below walks through data of US7368130B2, “Microparticles” (The Board of Trustees of the University of Illinois, priority 2000, dated 2008).

Data set [1] in a line: Release of rhodamine B from PLGA microspheres during incubation in PBS. To be noted: 37° C. The format is physicochemical. The method, then:
(§1) The rhodamine B, in its free base form, was dissolved in PLGA/ethyl acetate solutions at theoretical loadings of 1, 3 and 5%(mass drug/mass polymer). Microspheres of uniform 35, 50 and 65 μm diameters were fabricated, hardened and collected using the procedures described in the above examples. The presence of rhodamine had no observable effect on particle uniformity. Encapsulation of rhodamine (˜70% efficiency) was confirmed by fluorescence microscopy (FIG. 6, right). The rhodamine B is released from the spheres over the course of 7-10 days of incubation in PBS and 37° C.

Data set [2] is described as follows: Encapsulation of rhodamine B in PLGA microspheres, confirmed by fluorescence microscopy. Format: physicochemical. To be noted: PLGA microspheres from PLGA/ethyl acetate solution, theoretical loadings 1, 3 and 5%. The method, then:
as §1

The structures appear in SMILES notation. “Also recorded” adds a separate entry of the source.

`CCN(CC)c1ccc2c(-c3ccccc3C(=O)O)c3ccc(=[N+](CC)CC)cc-3oc2c1` [rhodamine B]: in data set [1] (PLGA microspheres of uniform 35, 50 and 65 μm diameters, theoretical loadings 1, 3 and 5% (mass drug/mass polymer), incubation in PBS), the “time over which rhodamine B is released from the spheres” value lay in the range of 7 to 10 days. The release rate result in data set [1] (dependence on sphere size and drug loading, PLGA microspheres in PBS) is on record as “faster when spheres were smaller (not shown) or contained more drug; also recorded: faster when spheres contained more drug”. Besides, the encapsulation efficiency in data set [2] is roughly 70%.
